Measurements published in patent US8722656B2, “Cephalosporins useful as antibacterial agents” (Zoetis LLC, priority 2011, dated 2014).
Converted amounts (≈) assume the structure as drawn.

Assays:
E. coli 25922 = assay: Dilution antimicrobial susceptibility test (M07-A8), E. coli; type: cell-based, Escherichia coli; settings: for MIC: Escherichia coli, antibacterial activity by dilution susceptibility test, isolate 25922; for E. coli/P. multocida: selectivity for P. multocida over E. coli (ratio of the two values)
Method: (§1) Compounds of the present invention were tested against an assortment of Gram-negative and Gram-positive organisms using the industrial standard techniques described in Methods for Dilution Antimicrobial Susceptibility Tests for Bacteria That grow Aerobically; Approved Standard-Eighth Edition, […]-A8, Vol. 29 No. 2 Replaces […]-A7 Vol. 26 No. 2. […] When comparing the activity against these isolates with that of the marketed human health drug of cefepime (screened in the same panel), the exemplified compounds of the present invention show >200 times more selectivity over E. coli.

M. haemo 43411 = assay: Dilution antimicrobial susceptibility test (M07-A8), M. haemolytica; type: cell-based; settings: Mannheimia haemolytica; antibacterial activity by dilution susceptibility test, isolate 43411
Method: as §1

P. multo 43719 = assay: Dilution antimicrobial susceptibility test (M07-A8), P. multocida; type: cell-based; settings: Pasteurella multocida; antibacterial activity by dilution susceptibility test, isolate 43719
Method: as §1

Row | SMILES | MIC (E. coli 25922) [µg/mL] | E. coli/P. multocida (E. coli 25922) | MIC (M. haemo 43411) [µg/mL] | MIC (P. multo 43719) [µg/mL]
1 | CO/N=C(\C(=O)N[C@@H]1C(=O)N2C(C(=O)O)=C(Cc3cccc(CSC(C)=O)c3C)CS[C@H]12)c1csc(N)n1 [Example 1, (6R,7R)-3-{3-[(acetylsulfanyl)methyl]-2-methylbenzyl}-7-{[(2Z)-2-(2-amino-1,3-thiazol-4-yl)-2-(methoxyimino)acetyl]amino}-8-oxo-5-thia-1-azabicyclo[4.2.0]oct-2-ene-2-carboxylic acid] | 16 (≈ 27.8 µM) | 533 | 0.06 (≈ 0.104 µM) | 0.03 (≈ 0.0521 µM)
2 | CO/N=C(\C(=O)N[C@@H]1C(=O)N2C(C(=O)O)=C(Cc3ccc(CSC(C)=O)cc3C)CS[C@H]12)c1csc(N)n1 [Example 2, (6R,7R)-3-{4-[(acetylsulfanyl)methyl]-2-methylbenzyl}-7-{[(2Z)-2-(2-amino-1,3-thiazol-4-yl)-2-(methoxyimino)acetyl]amino}-8-oxo-5-thia-1-azabicyclo[4.2.0]oct-2-ene-2-carboxylic acid] | 32 (≈ 55.6 µM) | 533 | 0.25 (≈ 0.434 µM) | 0.06 (≈ 0.104 µM)
3 | CO/N=C(\C(=O)N[C@@H]1C(=O)N2C(C(=O)O)=C(Cc3cc(CSC(C)=O)ccc3C)CS[C@H]12)c1csc(N)n1 [Example 3, (6R,7R)-3-{5-[(acetylsulfanyl)methyl]-2-methylbenzyl}-7-{[(2Z)-2-(2-amino-1,3-thiazol-4-yl)-2-(methoxyimino)acetyl]amino}-8-oxo-5-thia-1-azabicyclo[4.2.0]oct-2-ene-2-carboxylic acid] | 32 (≈ 55.6 µM) | 256 | 0.25 (≈ 0.434 µM) | 0.125 (≈ 0.217 µM)
4 | CO/N=C(\C(=O)N[C@@H]1C(=O)N2C(C(=O)O)=C(Cc3c(C)ccc(CSC(C)=O)c3C)CS[C@H]12)c1csc(N)n1 [Example 4, (6R,7R)-3-{3-[(acetylsulfanyl)methyl]-2,6-dimethylbenzyl}-7-{[(2Z)-2-(2-amino-1,3-thiazol-4-yl)-2-(methoxyimino)acetyl]amino}-8-oxo-5-thia-1-azabicyclo[4.2.0]oct-2-ene-2-carboxylic acid] | 32 (≈ 54.3 µM) | 128 | 0.5 (≈ 0.848 µM) | 0.25 (≈ 0.424 µM)
5 | CO/N=C(\C(=O)N[C@@H]1C(=O)N2C(C(=O)O)=C(Cc3c(C)c(CO)cc(CSC(C)=O)c3C)CS[C@H]12)c1csc(N)n1 [Example 5, (6R,7R)-3-{3-[(acetylsulfanyl)methyl]-5-(hydroxymethyl)-2,6-dimethylbenzyl}-7-{[(2Z)-2-(2-amino-1,3-thiazol-4-yl)-2-(methoxyimino)acetyl]amino}-8-oxo-5-thia-1-azabicyclo[4.2.0]oct-2-ene-2-carboxylic acid] | 32 (≈ 51.6 µM) | 533 | 0.125 (≈ 0.202 µM) | 0.06 (≈ 0.0968 µM)
6 | CO/N=C(\C(=O)N[C@@H]1C(=O)N2C(C(=O)O)=C(Cc3c(C)cc(CSC(C)=O)cc3C)CS[C@H]12)c1csc(N)n1 [Example 6, (6R,7R)-3-{4-[(acetylsulfanyl)methyl]-2,6-dimethylbenzyl}-7-{[(2Z)-2-(2-amino-1,3-thiazol-4-yl)-2-(methoxyimino)acetyl]amino}-8-oxo-5-thia-1-azabicyclo[4.2.0]oct-2-ene-2-carboxylic acid] | 32 (≈ 54.3 µM) | 128 | 0.5 (≈ 0.848 µM) | 0.25 (≈ 0.424 µM)
7 | CO/N=C(\C(=O)N[C@@H]1C(=O)N2C(C(=O)O)=C(Cc3cccc(NC(=O)CSC(C)=O)c3C)CS[C@H]12)c1csc(N)n1 [Example 7, (6R,7R)-3-(3-{[(acetylsulfanyl)acetyl]amino}-2-methylbenzyl)-7-{[(2Z)-2-(2-amino-1,3-thiazol-4-yl)-2-(methoxyimino)acetyl]amino}-8-oxo-5-thia-1-azabicyclo[4.2.0]oct-2-ene-2-carboxyl is acid] | 16 (≈ 25.9 µM) | 266 | 0.06 (≈ 0.097 µM) | 0.06 (≈ 0.097 µM)
8 | CO/N=C(\C(=O)N[C@@H]1C(=O)N2C(C(=O)O)=C(Cc3cc(NC(=O)CSC(C)=O)ccc3C)CS[C@H]12)c1csc(N)n1 [Example 8, (6R,7R)-3-(5-{[(acetylsulfanyl)acetyl]amino}-2-methylbenzyl)-7-{[(2Z)-2-(2-amino-1,3-thiazol-4-yl)-2-(methoxyimino)acetyl]amino}-8-oxo-5-thia-1-azabicyclo[4.2.0]oct-2-ene-2-carboxyl is acid] | 16 (≈ 25.9 µM) | 266 | 0.06 (≈ 0.097 µM) | 0.06 (≈ 0.097 µM)
9 | CCCN(C(=O)CSC(C)=O)c1ccc(CC2=C(C(=O)O)N3C(=O)[C@@H](NC(=O)/C(=N\OC)c4csc(N)n4)[C@H]3SC2)cc1 [Example 9] | 64 (≈ 99 µM) | 256 | 0.5 (≈ 0.773 µM) | 0.25 (≈ 0.387 µM)
10 | CO/N=C(\C(=O)N[C@@H]1C(=O)N2C(C(=O)O)=C(Cc3cccc(N(C)C(=O)CSC(C)=O)c3)CS[C@H]12)c1csc(N)n1 [Example 10] | 32 (≈ 51.7 µM) | 533 | 0.125 (≈ 0.202 µM) | 0.06 (≈ 0.097 µM)
11 | CO/N=C(\C(=O)N[C@@H]1C(=O)N2C(C(=O)O)=C(Cc3cccc(NC(=O)CSC)c3)CS[C@H]12)c1csc(N)n1 [Example 11, (6R,7R)-7-{[(2Z)-2-(2-amino-1,3-thiazol-4-yl)-2-(methoxyimino)acetyl]amino}-3-(3-{[(methylsulfanyl)acetyl]amino}benzyl)-8-oxo-5-thia-1-azabicyclo[4.2.0]oct-2-ene-2-carboxylic acid] | 4 (≈ 6.94 µM) | 133 | 0.03 (≈ 0.052 µM) | 0.03 (≈ 0.052 µM)
12 | CO/N=C(\C(=O)N[C@@H]1C(=O)N2C(C(=O)O)=C(Cc3cccc(NC(=O)CSC(C)=O)c3)CS[C@H]12)c1csc(N)n1 [Example 12, (6R,7R)-3-(3-{[(acetylsulfanyl)acetyl]amino}benzyl)-7-{[(2Z)-2-(2-amino-1,3-thiazol-4-yl)-2-(methoxyimino)acetyl]amino}-8-oxo-5-thia-1-azabicyclo[4.2.0]oct-2-ene-2-carboxylic acid] | 8 (≈ 13.2 µM) | 133 | 0.03 (≈ 0.0496 µM) | 0.06 (≈ 0.0992 µM)
13 | CO/N=C(\C(=O)N[C@@H]1C(=O)N2C(C(=O)O)=C(Cc3cccc(N(C(=O)CS)C(C)C)c3)CS[C@H]12)c1csc(N)n1 [Example 13, (6R,7R)-7-{[(2Z)-2-(2-amino-1,3-thiazol-4-yl)-2-(methoxyimino)acetyl]amino}-8-oxo-3-{3-[propan-2-yl(sulfanylacetyl)amino]benzyl}-5-thia-1-azabicyclo[4.2.0]oct-2-ene-2-carboxylic acid] | 8 (≈ 13.2 µM) | 266 | 0.06 (≈ 0.0992 µM) | 0.03 (≈ 0.0496 µM)
14 | CO/N=C(\C(=O)N[C@@H]1C(=O)N2C(C(=O)O)=C(Cc3cc(NS(C)(=O)=O)cc(C)c3C)CS[C@H]12)c1csc(N)n1 [Example 14, (6R,7R)-7-{[(2Z)-2-(2-amino-1,3-thiazol-4-yl)-2-(methoxyimino)acetyl]amino}-3-{2,3-dimethyl-5-[(methylsulfonyl)amino]benzyl}-8-oxo-5-thia-1-azabicyclo[4.2.0]oct-2-ene-2-carboxylic acid] | 16 (≈ 26.9 µM) | 533 | 0.06 (≈ 0.101 µM) | 0.03 (≈ 0.0504 µM)
15 | CO/N=C(\C(=O)N[C@@H]1C(=O)N2C(C(=O)O)=C(Cc3cc(NS(C)(=O)=O)c(C)cc3C)CS[C@H]12)c1csc(N)n1 [Example 15, (6R,7R)-7-{[(2Z)-2-(2-amino-1,3-thiazol-4-yl)-2-(methoxyimino)acetyl]amino}-3-{2,4-dimethyl-5-[(methylsulfonyl)amino]benzyl}-8-oxo-5-thia-1-azabicyclo[4.2.0]oct-2-ene-2-carboxylic acid] | 32 (≈ 53.8 µM) | 256 | 0.5 (≈ 0.841 µM) | 0.125 (≈ 0.21 µM)
16 | CO/N=C(\C(=O)N[C@@H]1C(=O)N2C(C(=O)O)=C(Cc3cccc(N(C)S(C)(=O)=O)c3)CS[C@H]12)c1csc(N)n1 [Example 16, (6R,7R)-7-{[(2Z)-2-(2-amino-1,3-thiazol-4-yl)-2-(methoxyimino)acetyl]amino}-3-{3-[methyl(methylsulfonyl)amino]benzyl}-8-oxo-5-thia-1-azabicyclo[4.2.0]oct-2-ene-2-carboxylic acid] | 16 (≈ 27.6 µM) | 533 | 0.03 (≈ 0.0517 µM) | 0.03 (≈ 0.0517 µM)
17 | CO/N=C(\C(=O)N[C@@H]1C(=O)N2C(C(=O)O)=C(Cc3cccc(NS(C)(=O)=O)c3)CS[C@H]12)c1csc(N)n1 [Example 17, (6R,7R)-7-{[(2Z)-2-(2-amino-1,3-thiazol-4-yl)-2-(methoxyimino)acetyl]amino}-3-{3-[(methylsulfonyl)amino]benzyl}-8-oxo-5-thia-1-azabicyclo[4.2.0]oct-2-ene-2-carboxylic acid] | 8 (≈ 14.1 µM) | 266 | 0.015 (≈ 0.0265 µM) | 0.03 (≈ 0.0529 µM)
18 | CO/N=C(\C(=O)N[C@@H]1C(=O)N2C(C(=O)O)=C(Cc3cc(NS(C)(=O)=O)cc(OC)c3)CS[C@H]12)c1csc(N)n1 [Example 18, (6R,7R)-7-{[(2Z)-2-(2-amino-1,3-thiazol-4-yl)-2-(methoxyimino)acetyl]amino}-3-{3-methoxy-5-[(methylsulfonyl)amino]benzyl}-8-oxo-5-thia-1-azabicyclo[4.2.0]oct-2-ene-2-carboxylic acid] | 16 (≈ 26.8 µM) | 266 | 0.08 (≈ 0.134 µM) | 0.06 (≈ 0.101 µM)
19 | CO/N=C(\C(=O)N[C@@H]1C(=O)N2C(C(=O)O)=C(Cc3cc(C)cc(NS(C)(=O)=O)c3)CS[C@H]12)c1csc(N)n1 [Example 19, (6R,7R)-7-{[(2Z)-2-(2-amino-1,3-thiazol-4-yl)-2-(methoxyimino)acetyl]amino}-3-{3-methyl-5-[(methylsulfonyl)amino]benzyl}-8-oxo-5-thia-1-azabicyclo[4.2.0]oct-2-ene-2-carboxylic acid] | 8 (≈ 13.8 µM) | 1000 | 8 (≈ 13.8 µM) | 0.008 (≈ 0.0138 µM)
